The values below are quoted from earlier work in patent US5882682A (Merck & Co., Inc., priority 1997, dated 1999).

Converted amounts (≈) assume the structure as drawn.

For data set [1] the following is noted: humans.

With `CC(=O)Nc1ccc(O)cc1` [acetominophren, acetaminophen], the “aqueous solubility (in words)” value is given as “moderately soluble”. In the case of `COc1ccc2c(c1)c(CC(=O)O)c(C)n2C(=O)c1ccc(Cl)cc1` [indomethacin], the “aqueous solubility (in words)” value is recorded as “poorly aqueous soluble”. Turning to `CC[C@H](C)C(=O)O[C@H]1C[C@@H](C)C=C2C=C[C@H](C)[C@H](CC[C@@H]3C[C@@H](O)CC(=O)O3)[C@H]21` [lovastatin], the “reduction of serum cholesterol levels” value in data set [1] was “highly effective”. For the same compound, the aqueous solubility (water) was 0.44 µg/mL (≈ 1.09 µM).

In the case of `CCC(C)(C)C(=O)O[C@H]1C[C@@H](C)C=C2C=C[C@H](C)[C@H](CC[C@@H]3C[C@@H](O)CC(=O)O3)[C@H]21` [simvastatin], the “reduction of serum cholesterol levels” value in data set [1] is “highly effective”.

As a reminder, the aqueous solubility is how much of the substance goes into solution per volume.
